Test results as given in ChEMBL document CHEMBL3217658, “Scaffold-hopping from aminoglycosides to small synthetic inhibitors of bacterial protein biosynthesis using a pseudoreceptor model” (Medchemcomm, 2011).
Values after ≈ are worked out from the molar mass of the structure shown. Active and inactive are the calls of the source. No cut-off for these calls is given here.

These compounds were tested on Bacillus subtilis (assay: Antibacterial activity against Bacillus subtilis 168 assessed as growth inhibition after 20 hrs by microtiter broth dilution method). Conditions: subsp. subtilis str. 168, 20 h.
Assay type: functional

SMILES	MIC [µM]
COc1cc(CNCCc2c[nH]c3ccccc23)ccc1OCc1ccc(Cl)nc1	250 (≈ 105 µg/mL)
COc1cc(CNC(=O)CCCC/C=C/C(C)C)ccc1O [CAPSAICIN]	63 (≈ 19.2 µg/mL)
COc1cc(CNCCc2c[nH]c3ccccc23)ccc1OCc1ccc(F)cc1	63 (≈ 25.5 µg/mL)
COc1cccc(CNCCc2c[nH]c3ccccc23)c1OCc1ccccc1F	125 (≈ 50.6 µg/mL)

What follows are compounds tested on Bacillus subtilis (assay: Antibacterial activity against Bacillus subtilis 168 assessed as growth inhibition at 0.5 to 500 uM after 20 hrs by microtiter broth dilution method). Conditions: subsp. subtilis str. 168.
Assay type: functional, organism-based

SMILES	growth inhibition (GI)
COc1cc(CNCCc2c[nH]c3ccccc23)cc(Cl)c1OCC(N)=O	inactive

Each compound was assayed against Transient receptor potential cation channel subfamily V member 1 (Homo sapiens, UniProt Q8NER1) (assay: Inhibition of TRPV1-mediated membrane currents in human DRG neurons). Conditions: not given.
Chain of Transient receptor potential cation channel subfamily V member 1 (Q8NER1 whole entry): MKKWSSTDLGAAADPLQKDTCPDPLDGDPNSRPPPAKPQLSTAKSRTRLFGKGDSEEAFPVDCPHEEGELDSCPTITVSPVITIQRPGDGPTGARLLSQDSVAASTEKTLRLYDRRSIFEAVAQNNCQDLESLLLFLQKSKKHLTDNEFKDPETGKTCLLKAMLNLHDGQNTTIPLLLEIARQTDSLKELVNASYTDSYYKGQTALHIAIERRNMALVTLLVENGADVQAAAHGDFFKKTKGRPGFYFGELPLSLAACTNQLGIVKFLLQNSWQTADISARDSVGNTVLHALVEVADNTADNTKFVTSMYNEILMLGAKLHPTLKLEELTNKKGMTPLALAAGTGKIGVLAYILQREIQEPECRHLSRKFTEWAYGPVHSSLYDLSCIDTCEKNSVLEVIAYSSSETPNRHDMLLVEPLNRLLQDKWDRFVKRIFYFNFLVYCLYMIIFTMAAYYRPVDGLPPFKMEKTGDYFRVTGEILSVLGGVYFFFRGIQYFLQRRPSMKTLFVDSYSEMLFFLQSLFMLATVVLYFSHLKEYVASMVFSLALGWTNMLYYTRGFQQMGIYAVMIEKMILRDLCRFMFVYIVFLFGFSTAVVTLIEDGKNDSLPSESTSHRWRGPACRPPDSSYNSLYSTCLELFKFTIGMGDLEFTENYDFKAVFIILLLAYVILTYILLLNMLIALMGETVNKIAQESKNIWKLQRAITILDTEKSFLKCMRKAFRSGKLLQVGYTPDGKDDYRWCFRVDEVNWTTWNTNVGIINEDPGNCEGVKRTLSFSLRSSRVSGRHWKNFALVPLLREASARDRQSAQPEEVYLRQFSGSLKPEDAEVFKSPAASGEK

SMILES	IC50 [nM]
NC[C@@H]1O[C@H](O[C@H]2[C@@H](O)[C@H](O[C@@H]3[C@@H](O)[C@H](N)C[C@H](N)[C@H]3O[C@H]3O[C@H](CN)[C@@H](O)[C@H](O)[C@H]3N)O[C@@H]2CO)[C@H](N)[C@@H](O)[C@@H]1O [FRAMYCETIN]	400

The compounds below were run on Escherichia coli (assay: Binding affinity to Escherichia coli ribosomal A-site assessed as inhibition of GFP biosynthesis at 500 uM by transcription/translation assay relative to chloramphenicol). Conditions: not given.

SMILES	inhibition
CC(O)CNCCNCc1cccc2ccccc12 (configuration not stated)	64%
Nc1cc(NC2OC(CO)C(O)C(O)C2O)ccc1[N+](=O)[O-] (configuration not stated)	61%
CNCCCNCc1ccc(OCC(N)=O)c(OC)c1	inactive
O=c1[nH]c(=O)n2c(c1[N+](=O)[O-])NC(C(O)C(O)C(O)CO)C2O (configuration not stated)	13%
NC(=O)c1ncn([C@H]2C[C@@H](CO)[C@H](O)[C@@H]2O)n1	inactive
CC(=O)N1[C@H](CO)CS[C@@H]1[C@H](O)[C@@H](O)[C@@H](O)[C@H](O)CO	inactive
COc1cc(CNCCc2c[nH]c3ccccc23)cc(Cl)c1OCC(N)=O	82%
OCC(O)C(O)C(O)C(O)C1NNC(=S)NN1 (configuration not stated)	inactive
CC(O)CNCCNCc1ccccc1 (configuration not stated)	36%
Nc1[nH]c(C2OC(CO)C(O)C2O)nc1C(=O)NCc1ccccc1 (configuration not stated)	22%
COc1cccc(CNCCc2c[nH]c3ccccc23)c1OCc1ccccc1F	71%
